One compound from paper PMC5666006, “Combating virulence of Gram-negative bacilli by OmpA inhibition” (Scientific Reports, 2017) can be followed below.

The test system of data set [1] is E. coli ATCC 25922. Format: cell-based. Here is the method:
(§1) In the initial screening, the bactericidal activity of the synthetic peptides and their toxicity on human lung epithelial cells (A549) were evaluated.
(§2) Table S1. MICs of the six hexapeptides for A. baumannii and E. coli.
(§3) Peptides P. aeruginosa PaO1
(§4) MIC: minimal inhibitory concentration

Data set [2] has as its system P. aeruginosa PaO1. The data set is classed as cell-based. The protocol: as §1, §2, §3, §4
Data set [3] is described as follows: Peptide toxicity, MTT assay. Format: cell-based, human. Particulars: human, A549 cells. The protocol: Human type II pneumocyte cell line A549 derived from a human lung carcinoma were obtained from American Type Culture Collection (LGC, UK) and were grown in DMEM medium (Invitrogen, Spain) supplemented with 10% heat-inactivated fetal bovine serum, vancomycin (50 μg/mL), gentamicin (20 μg/mL), amphotericin B (0.25 μg/mL) (Invitrogen, Spain) and 1% HEPES (Invitrogen, Spain) in a humidified incubator, 5% CO2 at 37 °C. A549 cells were routinely passaged every 3–4 days. The cells were seeded 24 h in 96-well plates for cellular viability assay, and in 24 well plates for adhesion and immnunofluorescence assays.
Peptide toxicity. […] Prior the evaluation of the peptides cytotoxicity, A549 cells were washed three times with prewarmed PBS. Then, peptides cytotoxicity was initially assessed quantitatively by monitoring the mitochondrial reduction activity using the MTT assay as described previously. The percentage of […] was calculated from the optical density (OD) as follow: [(OD of treated cells / mean OD of non-treated cell) × 100].
Table S2. Percentages of A549 cellular viability assessed through mitochondrial reduction
activity (MTT assay) in presence of anti-OmpA hexapeptides and control peptides (SXV4 and
COL). COL: colistin. ND: not determined.
Peptides 0.25 mg/mL 0.5 mg/mL 1 mg/mL 5 mg/mL

The subject of data set [4] is A. baumannii ATCC 17978. The data set is described as follows: Fibronectin-binding assay. The data set is classed as cell-based. Particulars: A. baumannii ATCC 17978, 0.25 or 0.5 mg/mL, 2 h. The protocol: (§5) Fibronectin-binding assay was performed as described previously. Briefly, A. baumannii ATCC 17978, P. aeruginosa PaO1, and E. coli ATCC 25922 grown overnight at 37 °C in LB were resuspended in PBS and collected by centrifugation at 5,000 × g for 10 min. […] Then, 50 µL of bacterial suspension were mixed with 50 µL of PBS, added to fibronectin coated wells and incubated 2 h at room temperature for bacterial adsorption. Non-adhered bacteria were discarded and wells were washed six times with sterile PBS to remove unbound bacteria. Adherent bacteria were then collected with 125 µL of sterile PBS containing 0.5% Triton X-100. Diluted lysates were plated onto sheep blood agar and incubated at 37 °C for 24 h for enumeration of developed colonies and then the determination of the number of bacteria that attached to fibronectin.

The subject of data set [5] is E. coli ATCC 25922. The data set is described as follows: Fibronectin-binding assay. The data set is classed as cell-based. Particulars: E. coli ATCC 25922, 0.25 or 0.5 mg/mL, 2 h. Here is the method: as §5
In data set [6] the test system is P. aeruginosa PaO1. The data set is described as follows: Fibronectin-binding assay. The data set is classed as cell-based. Particulars: P. aeruginosa PaO1, 0.25 or 0.5 mg/mL, 2 h. Here is the method: as §5
The subject of data set [7] is A. baumannii ATCC 17978. The experiment in a line: Bacterial cytotoxicity on A549 cells, MTT assay. Format: cell-based. The following applies: A. baumannii ATCC 17978 pretreated with 0.25 or 0.5 mg/mL, 24 h. The protocol:
(§6) Bacterial cytotoxicity. […] Prior the evaluation of bacterial cytotoxicity, we firstly removed viable bacteria from A549 cells cultures and washed A549 cells five times with pre-warmed PBS. Then, cellular viability was assessed as indicated above.

The subject of data set [8] is E. coli ATCC 25922. The data set is described as follows: Bacterial cytotoxicity on A549 cells, MTT assay. Particulars: E. coli ATCC 25922 pretreated with 0.25 or 0.5 mg/mL, 24 h. The data set is classed as cell-based. Here is the method: as §6
Data set [9] deals with P. aeruginosa PaO1. The experiment in a line: Bacterial cytotoxicity on A549 cells, MTT assay. Format: cell-based. The following applies: P. aeruginosa PaO1 pretreated with 0.25 or 0.5 mg/mL, 24 h. The protocol: as §6
For orientation: Tetrazolium assays rely on reduction of a dye to a coloured formazan, in cell work by metabolically active cells.

The subject of data set [10] is A. baumannii ATCC 17978. The experiment in a line: Time kill curves. Particulars: 0.25–1 mg/mL. Format: cell-based. An excerpt:
(§7) Figure S4. Time kill curves of A. baumannii ATCC 17978, P. aeruginosa PaO1, and E. coli
(§8) (also on this page, place not known: Bacterial concentration ( Log CFU/mL) Bacterial concentration ( Log CFU/mL) Bacterial concentration ( Log CFU/mL))

The test system of data set [11] is E. coli ATCC 25922. The experiment in a line: Time kill curves. Format: cell-based. The following applies: 0.25–1 mg/mL.
Description: as §7, §8

Data set [12] deals with P. aeruginosa PaO1. The experiment in a line: Time kill curves. Format: cell-based. The following applies: 0.25–1 mg/mL.
Description: as §7, §8

The nature of data set [13]: AOA-2 pharmacokinetics in serum. The following applies: mouse, in vivo, ip, 10 mg/kg.

For orientation: MIC means the least concentration at which growth counts as inhibited. Read a high MIC as a less susceptible organism. The term viability denotes a read-out of living cells in per cent, often relative to untreated cells. The low end stands for a greater loss of cells, the high end for better survival. As a reminder, the half-life is how long it takes for the measured level to halve.

Where a SMILES comes first, the peptide text is derived from it. [ ]: non-standard residue; d: D form.

For the compound `N=C(N)NCCC[C@@H]1NC(=O)[C@H]2CCCN2C(=O)[C@H](Cc2c[nH]c3ccccc23)NC(=O)[C@H](CCCNC(=N)N)NC(=O)[C@H]2CCCN2C(=O)[C@H](Cc2c[nH]c3ccccc23)NC1=O` [AOA-2] (cyclo(RW[dP]RW[dP])), the MIC in data set [1] and in data set [2] was greater than 500 µg/mL each time. The compound further registered a viability at 48 h, 250 µg/mL in data set [3] of 98.09 ± 0.27%. Further, the viability at 48 h, 500 µg/mL in data set [3] was 98.33 ± 0.4%. Further, the viability at 48 h, 1000 µg/mL in [3] came to 98.48 ± 0.55%. In addition, the “bacterial adherence to fibronectin (in words)” value in data set [4], in [5] and in [6] was “significant decrease in the bacterial adherence to fibronectin” each time. Besides, the results for the “A549 cell death induced by bacteria (in words)” value in data set [7], in data set [8] and in data set [9] were “prevented cell death”, “failure” and “prevented cell death”, respectively. Further, the “bacteriostatic activity (in words)” value in [10] is reported as “poor bacteriostatic activity”; in [11], “intermediate behaviour”; in [12], “relevant bacteriostatic activity”. In data set [13], this compound showed a half-life of 56 min.
